Values quoted from earlier work, collected in patent US8410049B2, “Methods and kits for preventing hypoglycemia” (Cebix, priority 2009, dated 2013).

Conditions: in vivo; cited from earlier work

Aspart
Peak time of effect: around 30 minutes

Glargine insulin
Duration of activity: 24 h
Peak time of effect: no peak effect

Glulisine
Peak time of effect: around 30 minutes

Lantus
Duration of activity: up to 24 hours

Lispro
Peak time of effect: around 30 minutes

Regular insulin
Onset of action: 30 to 60 min
